Laboratory results as given in PMC6129397 (Xenobiotica; the fate of foreign compounds in biological …, 2017).
Read-outs that look alike come from different tables or passages of the source. One block for each compound: values may come before it.

How the values were obtained:
[1] = target: T1, glucocorticoid receptor (GR) (Homo sapiens, UniProt P04150); assay: Glucocorticoid receptor; format: cell-based
T1 sequence (P04150 1-777): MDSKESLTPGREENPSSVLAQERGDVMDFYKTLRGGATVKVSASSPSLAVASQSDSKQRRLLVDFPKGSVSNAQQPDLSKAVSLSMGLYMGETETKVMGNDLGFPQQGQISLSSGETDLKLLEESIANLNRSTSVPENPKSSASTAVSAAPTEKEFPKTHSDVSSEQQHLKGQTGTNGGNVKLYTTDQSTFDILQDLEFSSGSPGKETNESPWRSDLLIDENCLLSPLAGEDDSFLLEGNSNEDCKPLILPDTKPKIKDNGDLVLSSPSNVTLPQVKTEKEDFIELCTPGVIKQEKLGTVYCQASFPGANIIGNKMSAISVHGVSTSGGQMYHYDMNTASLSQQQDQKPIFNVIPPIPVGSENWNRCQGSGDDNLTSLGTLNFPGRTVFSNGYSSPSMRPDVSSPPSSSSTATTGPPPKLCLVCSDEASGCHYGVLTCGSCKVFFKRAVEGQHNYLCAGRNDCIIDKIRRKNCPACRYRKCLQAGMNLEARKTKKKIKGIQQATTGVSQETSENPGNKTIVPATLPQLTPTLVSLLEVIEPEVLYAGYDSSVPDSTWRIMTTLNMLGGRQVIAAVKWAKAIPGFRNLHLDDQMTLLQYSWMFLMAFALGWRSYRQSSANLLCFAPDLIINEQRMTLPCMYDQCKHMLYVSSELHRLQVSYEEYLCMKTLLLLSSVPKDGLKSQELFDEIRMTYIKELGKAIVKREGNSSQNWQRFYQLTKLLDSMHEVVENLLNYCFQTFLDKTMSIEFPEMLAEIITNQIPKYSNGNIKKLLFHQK

[2] = target: T2, progesterone receptor (PR) (Homo sapiens, UniProt P06401); assay: Progesterone receptor; format: cell-based
T2 sequence (P06401 1-933): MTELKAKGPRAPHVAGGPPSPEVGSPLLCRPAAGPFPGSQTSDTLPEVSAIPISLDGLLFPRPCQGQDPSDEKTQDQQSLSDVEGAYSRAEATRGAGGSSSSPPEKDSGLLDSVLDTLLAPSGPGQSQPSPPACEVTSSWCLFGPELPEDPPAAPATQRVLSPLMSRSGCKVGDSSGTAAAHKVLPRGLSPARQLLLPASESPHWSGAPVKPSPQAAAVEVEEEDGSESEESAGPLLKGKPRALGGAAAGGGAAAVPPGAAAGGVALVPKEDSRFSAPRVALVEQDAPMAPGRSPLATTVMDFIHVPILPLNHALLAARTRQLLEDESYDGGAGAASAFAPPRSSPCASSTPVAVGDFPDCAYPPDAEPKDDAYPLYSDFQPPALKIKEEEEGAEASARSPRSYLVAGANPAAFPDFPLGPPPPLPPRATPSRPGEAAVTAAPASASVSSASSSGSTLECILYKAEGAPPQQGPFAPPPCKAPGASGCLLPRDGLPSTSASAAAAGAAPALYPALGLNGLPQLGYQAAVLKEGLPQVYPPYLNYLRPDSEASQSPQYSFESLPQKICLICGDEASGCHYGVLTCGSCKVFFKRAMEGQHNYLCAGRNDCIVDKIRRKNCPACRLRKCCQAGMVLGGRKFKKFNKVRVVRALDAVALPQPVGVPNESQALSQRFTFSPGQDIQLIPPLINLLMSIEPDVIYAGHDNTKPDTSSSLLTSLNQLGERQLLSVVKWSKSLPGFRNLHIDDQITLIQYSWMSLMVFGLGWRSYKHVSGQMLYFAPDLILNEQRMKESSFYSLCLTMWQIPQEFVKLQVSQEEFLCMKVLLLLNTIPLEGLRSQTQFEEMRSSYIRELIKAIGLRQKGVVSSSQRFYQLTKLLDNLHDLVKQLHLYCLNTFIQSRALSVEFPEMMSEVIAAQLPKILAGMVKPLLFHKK

[3] = tested on: human liver microsomes (HLM); assay: Oxidation-glucuronidation assay with HLMs; format: in vitro ADME
[4] = tested on: HLMs
[5] = T47D cells, 8 h, 10 nM, versus ethanol

SMILES: C[C@@H]1C[C@H]2[C@@H]3CCC4=CC(=O)C=C[C@]4(C)[C@@]3(F)[C@@H](O)C[C@]2(C)[C@@]1(O)C(=O)CO [Dexamethasone, dexamethasone]
- average mRNA fold change GILZ ([1]; MDA-MB-231 cells, 4 h, 0.1 μM): 18.5 fold change
- average mRNA fold change SGK1 ([1]; MDA-MB-231 cells, 4 h, 0.1 μM): 5.6 fold change

- pharmacologic activity on the PR ([2]; in words): significant pharmacologic activity
- activity on the GR ([1]; in words): showed activity
- glucuronide formation by HLM ([3]; UDPGA alone (data not shown)): does not form any glucuronides
- glucuronide formation by HLM ([3]; co-incubation with both NADPH and UDPGA, 24 hrs): two glucuronides were detected
SMILES: CC(=O)O[C@]1(C(C)=O)CC[C@H]2[C@@H]3C=C(C)C4=CC(=O)CC[C@]4(C)[C@H]3CC[C@@]21C [MA, Megestrol acetate]

- average mRNA fold change E2F1 [2, 5]: 4.8 ± 0.4 fold change
- average mRNA fold change FKBP5 [2, 5]: 9.5 ± 0.3 fold change
- average mRNA fold change GREB1 [2, 5]: 2.2 ± 0.1 fold change
SMILES: CCC(=O)[C@@]1(C)CC[C@H]2[C@@H]3CCC4=CC(=O)CCC4=C3CC[C@@]21C [Metabolite R5020]

SMILES: CC(=O)N1CCN(c2ccc(OCC3COC(Cn4ccnc4)(c4ccc(Cl)cc4Cl)O3)cc2)CC1 (centres unmarked) [ketoconazole]
- inhibition of M1 ([4]; 28 μM MA, ketoconazole 1 μM): 96.2%
- inhibition of M2 ([4]; 28 μM MA, ketoconazole 1 μM): 100%
- inhibition of M1 ([4]; 62 μM MA, ketoconazole 1 μM): 100%
- inhibition of M2 ([4]; 62 μM MA, ketoconazole 1 μM): 100%

SMILES: CO[C@H]1C[C@H](O[C@H]2[C@H](C)[C@@H](O[C@@H]3O[C@H](C)C[C@H](N(C)C)[C@H]3OC(C)=O)[C@@H](C)C[C@@]3(CO3)C(=O)[C@H](C)[C@@H](OC(C)=O)[C@@H](C)[C@@H](C)OC(=O)[C@@H]2C)O[C@@H](C)[C@@H]1OC(C)=O [troleandomycin]
- inhibition of M1 ([4]; 28 μM MA, troleandomycin 50 μM): 93.2%
- inhibition of M2 ([4]; 28 μM MA, troleandomycin 50 μM): 100%
- inhibition of M1 ([4]; 62 μM MA, troleandomycin 50 μM): 94.4%
- inhibition of M2 ([4]; 62 μM MA, troleandomycin 50 μM): 100%
